Measurements reported in patent US20230130823A1, “PROCESS FOR THE PRODUCTION OF ANTITUMOUR PHARMACEUTICAL COMPOSITIONS USING PUSH-PULL BUTADIENES, COMPOUNDS AND USES THEREOF” (ANHANGUERA EDUCACIONAL PARTICIPAÇÕES S/A, priority 2019, published 2023).
Read-outs that look alike come from different tables or passages of the source. One block for each compound: values may come before it.

Assays:
[1] = test system: HUVEC (Normal human endothelial cell)
CaCo2 = test: In vitro cytotoxicity, CaCo2 colon line; type: cell-based; conditions: Homo sapiens, Caco-2; Caco2, Table 3; read-out: CI50% (the source's name)
MIAP2 = test: In vitro cytotoxicity, MIAP2 pancreas line; type: cell-based; conditions: Homo sapiens; MIAP2, Table 3; read-out: CI50% (the source's name)
BxPC3 = test: In vitro cytotoxicity, BxPC3 pancreas line; type: cell-based; conditions: Homo sapiens, BXPC-3; BxPC3, Table 3; read-out: CI50% (the source's name)
[2] = test system: lines of human carcinoma tested; test: In vitro cytotoxicity against the panel of human carcinoma lines; conditions: compared with compound 6
HT-29 = test: In vitro cytotoxicity, HT-29 colon line; type: cell-based; conditions: Homo sapiens, HT-29; HT29, Table 3; read-out: CI50% (the source's name)
SW620 = test: In vitro cytotoxicity, SW620 colon line; type: cell-based; conditions: Homo sapiens, SW-620; SW620, Table 3; read-out: CI50% (the source's name)
PANC1 = test: In vitro cytotoxicity, PANC1 pancreas line; type: cell-based; conditions: Homo sapiens, PANC-1; PANC1, Table 3; read-out: CI50% (the source's name)
Colo205 = test: In vitro cytotoxicity, Colo205 colon line; type: cell-based; conditions: Homo sapiens, COLO 205; Colo205, Table 3; read-out: CI50% (the source's name)
CRO2B = test: In vitro cytotoxicity, CRO2B carcinoid line; type: cell-based; conditions: Homo sapiens, Table 3, read-out: CI50% (the source's name)
DLD1 = test: Antitumor activity, DLD1 line; type: cell-based; conditions: Homo sapiens, DLD-1; DLD1, Table 3; read-out: CI50% (the source's name)
UACC62 = test: Cytotoxicity, UACC62 melanoma line; type: cell-based; conditions: Homo sapiens, UACC-62, read-out: CI50 (the source's name)
NCIADR = test: Cytotoxicity, NCIADR multiple drug resistant ovary line; type: cell-based; conditions: Homo sapiens, NCI/ADR-RES, read-out: CI50 (the source's name)
MCF7 = test: Cytotoxicity, MCF7 breast line; type: cell-based; conditions: Homo sapiens; MCF7 (breast cancer); read-out: CI50 (the source's name)
NCI460 = test: Cytotoxicity, NCI460 lung line; type: cell-based; conditions: Homo sapiens, NCI-460, read-out: CI50 (the source's name)
[3] = test system: SCC9 (squamous-cell carcinoma of the oral cavity); test: Cytotoxicity, SCC9 cells; type: cell-based; conditions: Homo sapiens, SCC-9, read-out: CI50% tumor cells
[4] = test system: MCF-7 (human mammary adenocarcinoma); test: Cytotoxicity, MCF-7 cells; type: cell-based; conditions: MCF7, read-out: CI50% tumor cells
[5] = test system: SCC25 (squamous-cell carcinoma of the oral cavity); test: Cytotoxicity, SCC25 cells; type: cell-based; conditions: Homo sapiens, SCC-25, read-out: CI50% tumor cells
[6] = test system: FN-1 (Normal human fibroblast); test: Cytotoxicity, normal human fibroblasts; type: cell-based; conditions: FN-1
Description: Fragments of cutaneous biopsies from patients treated by the Dermatology Service of the Clinic Hospital of the Medicine School of USP were removed for routine diagnostic procedures and part of the surgical flap edge immersed in Eagle culture medium modified by Dulbecco's (DMEM, Sigma Chemical Co., St. Louis, Mo., USA) added of 10% fetal bovine serum (Cultilab Ltda., Campinas-SP), […] and 50 ng/ml amphotericin B at 4 C and kept at 4 C for a maximum of 16 hours.
The fragments were washed three times in the same solution, cut into fragments of approximately 1 mm^3 and transferred to 25 cm^2 culture flasks, kept at 37 C, humid atmosphere containing 5% CO2. Cell growth monitored daily, photo documented in inversion microscopy and culture medium exchanged every 2 or 3 days, according to cell metabolism.
After 7 days, the first change in the culture medium of the flasks was performed once cell growth started, the culture medium was renewed every three days. Plastic flasks were used for cultivation of 25 cm^2 of cultivated area, where more 3 ml of DME medium containing 10% fetal bovine serum and 1% of antibiotic-antimycotic solution will be added.
The cell viability test was performed to verify the effect of the various compounds on the various concentrations previously established: on the lines of tumor cells B16F10 and normal human fibroblasts. The MTT method consists of a cell viability test that measures the activity of mitochondrial dehydrogenase. MTT is a colorimetric method based on the capacity of living cells to reduce salt 3-(4,5-di-methylazole-2-IL)-2,5-diphenyl tetrazolium bromide in the formazan product (Mosmann, 1983). […]
The 96-well plate was read by the spectrophotometer (Spectra MAX-190) using the wavelength of 570 nm. The results were analyzed by absorbance of each well. The percentage of viability was obtained using the following formula: [(Absorbance of treated cells/Absorbance of untreated cells)×100]. […]

[7] = test system: 4T1 (murine mammary carcinoma); test: Cytotoxicity, 4T1 cells; type: cell-based; conditions: Mus musculus, read-out: CI50% tumor cells
[8] = test system: HUVEC (Normal human endothelial cell); test: Cytotoxicity, HUVEC normal cells

- CI50% Normal cells [1]: 23.09 µM
Compound: 5-(chloro-2-(3,4-dimethoxybenzyl)-5-(4-ethynyl-2,3,4,6-benzil-β-D-galactopyranoside)-penta-2,4-dienonitrile [Compound 21A]

- IC50 (DLD1): 127 µM
Compound: O=CC=C(Cl)c1ccccc1OC(=O)c1ccccc1 [Compound 5, 3-Chloro-3-(2-benzoyloxy-phenyl)propenal]
- IC50 (CaCo2): 163 µM
- IC50 (MIAP2): 156 µM
- IC50 (BxPC3): 160 µM
- cytotoxic activity relative to compound 6 [2]: seven times lower
- IC50 (HT-29): 92 µM
- IC50 (SW620): 134 µM
- IC50 (PANC1): 177 µM
- IC50 (Colo205): 149 µM
- IC50 (CRO2B): 149 µM

Compound: CC(=O)c1ccccc1OCC=C(C)C [Compound 9, 2-(3-methylbut-2-enyl-oxyi)acetophenone]
- IC50 (UACC62): 220 µM
- IC50 (NCIADR): 39.2 µM
- IC50 (MCF7): 122 µM
- IC50 (NCI460): 122 µM

Compound: COc1ccc(/C=C/C(Cl)=C/C=O)cc1OC [Compound 23, (4E)-3-chloro-5-(3,4-dimethoxyphenyl)penta-2,4-dienal]
- IC50 [3]: 15 µM
- IC50 [4]: 54.6 µM
- IC50 [5]: 3.32 µM
- CI50% Normal cells [6]: 53.33 µM
- IC50 [7]: 22.1 µM
- CI50% Normal cells [8]: 30.1 µM
